Laboratory results reported in patent publication US9247737B2, “Method for disinfecting a surface” (Rohm and Haas Company, priority 2011, dated 2016).
Several values for one entry are separate records, joined by “and”; a condition that tells them apart may be missing. Identical values can stand only once.

Experiments:
Assay type in all cases: cell-based
[1] = test system: Escherichia coli (E. coli—ATCC #10536); assay: Example 3: automated assessment of efficacy in surfactant base (2.85% sodium cocoyl glycinate + 1.85% sodium lauroamphoacetate, pH 10), 15 seconds exposure, DeltaOD read-out; settings: for MBC: in 2.85% sodium cocoyl glycinate + 1.85% sodium lauroamphoacetate solution at pH 10, 15 seconds; for 15 second bactericidal efficacy in combination with thymol (in words): in combination with thymol at concentrations lower than their MBC in the same surfactant formulation
Experimental: In these examples, the efficacy of combinations of thymol and acyclic terpene alcohols were tested in a surfactant cleansing formulation comprising 2.85% sodium cocoyl glycinate and 1.85% sodium lauroamphoacetate. […] Solutions were prepared such that the concentrations of the surfactant components and test actives were 1.1 times the final desired concentration in order to allow for dilution with the bacterial inoculum in the test. […] Solutions of the thymol and/or acyclic terpene alcohols were prepared at a maximum of 24 hours before testing. […] Tests were conducted using standard microtiter plate assays using an automated liquid handling system. 270 μl of the surfactant test solution was pipetted into each well of the microtitre plate (Nunc F Gamma irradiated 96F untreated microtitre plates of clear polystyrene) and 30 μl of the bacterial suspension was then added. After exactly 15 seconds of bacterial exposure, a 30 μl volume of bacterial cells was withdrawn and transferred to 270 μl of D/E quench solution. […] These provide a dual check of antimicrobial activity, as the OD450 reading is specific for the yellow colour of DIE quench when bacterial growth is observed, whereas OD590 is specific for the initial purple colour of the D/E quench which is retained if no bacterial growth is observed. […] Bacterial growth is observed as an increase in OD450 and a decrease in OD590. […] Four replicate measurements in the same plate have been made for each test system. The number of replicate wells showing either bacterial growth or no growth is also readily assessed by eye by following the colour change. Thymol and terpineol were tested both alone and in combination for comparison purposes.

[2] = test system: Escherichia coli (E. coli ATCC #10536); assay: Example 2: high resolution MBC synergy assay in phosphate buffer containing 35% dipropylene glycol, 15 seconds; settings: for ΣFBC: calculated for the Ca/Cb pair, 1.00 for a component alone; for MBC of component alone (MBCA thymol, MBCB acyclic terpene alcohol): complete kill in 15 seconds, phosphate buffer with 35% DPG, about 1×10^8 bacteria per mL
Experimental: In this Example, a wide range of combinations of chemicals was tested by conducting high resolution MBC assays of selected acyclic terpene alcohols in the presence of various concentrations of thymol. The materials were sourced in the same way as for Example 1. Synergy tests were conducted using standard microtiter plate assays with phosphate buffer containing 35% dipropylene glycol (DPG). […] The MBC plate was inoculated one column at a time with the test microorganism. An aliquot of the inoculated well was transferred at 15 seconds to a plate containing a neutralizing agent (DIE Neutralizing Broth), mixed and held for 5 minutes before being transferred to a growth plate containing trypticase soy broth (TSB). The TSB plate was incubated at 37° C. and read for the presence/absence of growth at 24 hours. […] This microorganism is representative of natural contaminants in many consumer and industrial applications. […] The tables show the specific combinations of two components: results against the microorganism tested: the end-point activity in weight % measured by the MBC for the first component alone (thymol, MBCA), for the second component alone (acyclic terpene alcohol, MBCB), for the first component in the mixture (Ca) and for the second component in the mixture (Cb); the calculated ΣFBC value; and the range of synergistic ratios for each combination tested (first component t second component or A/B) against the particular microorganism.

[3] = test system: Escherichia coli (10536 strain); assay: Example 1: 15 second contact-time bacterial kill assay (microtitre plate, D/E quench, TSA plate count); MBC and FBC analysis; settings: lowest concentration of the single active giving zero bacterial survival after 15 seconds; upper boundary
Experimental: The efficacies of antimicrobial agents can be usefully compared by determining the Minimum Biocidal Concentration (MBC). The MBC is defined as the lowest absolute concentration of the particular active that provides complete kill (zero bacterial growth).
1 ml of this overnight E. coli culture was transferred to 50 ml of fresh TSB broth and incubated at 37° C. at 150 rpm for ca. 4 hours. This culture was separated into equal volumes and centrifuged at 4000 rpm for 15 minutes, washed with sterile saline (0.85% NaCl), centrifuged once more and re-suspended in saline to give a final concentration of 0.8 OD620 equivalent to about 10^8 cells per millilitre for this particular organism. Here, OD620 indicates the absorbance of a sample in a cuvette of 1.0 cm path length at a wavelength of 620 nm. This bacterial stock was used for assaying against antimicrobial actives (in triplicate).
The following assay describes the testing of 8 materials using 6 dilutions across half of a 96-well micro titre plate (MTP). Using this approach it is possible to assay 16 actives (without replicates) with one full dilution plate, replicating this set up in two halves of the plate columns, 1-6 and 7-12.
This MTP was labelled as the “Screening plate”.
In another MTP, labelled as the “Dilution plate”, 270 μl of D/E neutralising solution from DIFCO Composition was added to column 1. The composition of the neutralising solution was as follows: pancreatic digest of casein, 5.0 g/L; Yeast Extract, 2.5 g/L; Dextrose, 10 g/L, sodium thioglycollate, 1.0 g/L, sodium thiosulphate, 6.0 g/L; sodium bisulphite, 2.5 g/L; Polysorbate 80, 5.0 g/L; lecithin 7.0 g/L; bromocresol purple, 0.02 g/L with a pH in the range 7.6±0.2.
270 μl of tryptone diluent solution was added to all the remaining wells of the Dilution MTP (columns 2-6).
After exactly 5 minutes in the D/E neutralising solution, 30 μl volumes were transferred from column 1 to column 2 of the Dilution MTP and mixed, before transferring further 30 μl volumes from column 2 into column 3. […]

Row | SMILES | MBC [1] | ΣFBC [2] | MBC of component alone (MBCA thymol, MBCB acyclic terpene alcohol) [2] | MBC (minimum biocidal concentration) [3] [% w/v] | 15 second bactericidal efficacy in combination with thymol (in words) [1]
1 | Cc1ccc(C(C)C)c(O)c1 [thymol, 2-isopropyl-5-methylphenol] | 0.2 % w/v | 1.00 | 0.5 weight % and 0.4 weight % | – | –
2 | CC1=CCC(C(C)(C)O)CC1 (stereo not drawn) [alpha-terpineol, reference compound] | – | – | – | 0.4 | –
3 | CC(C)=CCC/C(C)=C/CO [geraniol, (E)-3,7-dimethylocta-2,6-dien-1-ol] | >0.5 % w/v and 0.5 % w/v | 1.00 | 0.3 weight % | – | complete kill
4 | CC(C)=CCC/C(C)=C\CO [nerol, (Z)-3,7-dimethylocta-2,6-dien-1-ol] | – | 1.00 | 0.5 weight % | – | –
5 | C=CC(C)(O)CCC=C(C)C (racemic) [(+/−)-linalool, 3,7-dimethylocta-1,6-dien-3-ol] | >0.5 % w/v | 1.00 | 0.5 weight % | 0.4 | complete kill
6 | C=C[C@@](C)(O)CCC=C(C)C [(−)-linalool, (S)-3,7-dimethylocta-1,6-dien-3-ol] | – | – | – | 0.4 | –
